Laboratory results reported in patent US5670331A, “Methods for optimizing fluoropyrimidine cancer therapy” (The University of Alabama Research Foundation, priority 1995, dated 1997).

Experiments:
Assay type in all cases: biochemical
[1] = tested on: Nucleoside Kinases; assay: Pyrimidine nucleoside kinase kinetics, human liver; conditions: substrate of nucleoside kinases; for Km / Vmax: 37° C.
Method: (§1) Enzyme activities were determined isotopically as the products, nucleotides, nucleosides, bases, β-amino-acid, etc. formed from their respective radiolabeled substrates, bases and/or nucleosides. All assays were run at 37° C. under conditions where activity was linear with time and enzyme concentration. […] Reactions were started by the addition of extract and stopped by boiling in a water bath for 2 minutes followed by freezing. Precipitated proteins were removed by centrifugation. A 10-25 μl aliquot of the supernatant fluid was spotted on the appropriate TLC plate and developed in the appropriate solvent system. Separated substrate and product(s) were counted on a TLC Analyzer (Berthold). The amounts of substrate and product(s) were calculated on a percentage basis.
(§2) The assay mixture contained 50 mM Tris-Cl, pH 7.4; 3-60 μM radiolabeled nucleoside ([2-^14 C]thymidine or [2-^14 C]5-fluoro-2'-deoxyuridine); 2.5 mM ATP; 5 mM creatine phosphate; 25 mM NaF; and 50 μl of sonicate to which was added a dash of phosphocreatine kinase in a final volume of 100 μl. After termination of the reaction and centrifugation, the supernatant was spotted on silica gel TLC plates. The plates were developed in a solution of chloroform:methanol:acetic acid (56:24:4, v/v/v) to separate the nucleosides which migrate with the front from the nucleotides which remain at the origin. When assaying patients, the assays are run at about 4.4 μM 5-fluoro-2'-deoxyuridine or about 6.4 μM thymidine.
(§3) The apparent Km and Vmax, as well as the enzyme efficiency values were calculated using computer programs based on Wilkinson-Cleland procedures. Because of the number of patients used, a two-tailed t-test was applied to determine the degree of significance of the difference in enzymatic activities between healthy volunteers, tolerant and intolerant subjects.

[2] = tested on: Nucleoside Phosphorylase; assay: Pyrimidine nucleoside phosphorylase kinetics, human liver; conditions: substrate of nucleoside phosphorylase; for Km / Vmax: 37° C.
Method: as §1
(§4) The assay mixture contained Buffer A, 33-600 μM radiolabeled nucleoside ([2-^14 C]uridine, [2-^14 C]thymidine or [2-^14 C]5-fluoro-2'-deoxyuridine), and 50 μl of sonicate in a final volume of 100 μl. After termination of the reaction and centrifugation, the nucleosides were separated from their respective nucleobases on silica gel TLC plate developed with chloroform:methanol:acetic acid (90:5:5 v/v/v). When assaying patients, the assay is run at about 226 μM 5-fluoro-2'-deoxyuridine, about 169 μM thymidine or about 114 μM uridine.
as §3

[3] = tested on: Nucleoside Kinases; assay: Pyrimidine nucleoside kinase kinetics, human mononuclear cell sonicate; conditions: substrate of nucleoside kinases, human mononuclear cells; for Km / Vmax: 37° C.
Method: (§5) All procedures are carried out at room temperature, using solutions preheated to 37° C. Blood samples were withdrawn in aliquots of 30 ml into 60 ml syringes, containing 5 ml heparin (1,000 Units/ml). Blood and heparin were immediately mixed by inverting the syringes. The mixture was layered onto HISTOPAQUE-1077 (15 ml), in a 50 ml conical centrifuge tube and centrifuged for 30 minutes at 400 ×g. The upper layer was then aspirated with a Pasteur pipet and discarded, while the opaque interface containing the mononuclear cells was aspirated into a fresh conical tube containing 10 ml growth medium (RPMI-1640 medium: 5% FBS:0.050M HEPES, pH 7.4) and mixed by inverting the tubes. The cells were pelleted by centrifugation for 10 minutes at 250 ×g then resuspended into fresh growth medium by gentle aspiration with a Pasteur pipet. After two more washing, the cells were suspended into 10 ml fresh growth media.
(§6) The following buffers were used: Buffer A (20 mM potassium phosphate, pH 8.0) and Buffer B (50 mM Tris-Cl, pH 7.5). Mononuclear cells were washed 2-3 times as described above except that buffer B was substituted for the growth medium. The cells were then sonicated (1:2 v/v) in buffer B using a sonic dismembrator (Fisher model 300). The sonicate was then used as the enzyme source.
as §1, §2, §3

[4] = tested on: Nucleoside Phosphorylase; assay: Pyrimidine nucleoside phosphorylase kinetics, human mononuclear cell sonicate; conditions: substrate of nucleoside phosphorylase, human mononuclear cells; for Km / Vmax: 37° C.
Method: as §5, §6, §1, §4, §3

Structure (SMILES) | Vmax /Km [1] [min^-1 × 10^3] | Km [1] [µM] | Vmax [1] [nmol/min/mg] | Vmax /Km [2] [min^-1 × 10^3] | Km [2] [µM] | Vmax [2] [nmol/min/mg] | Vmax /Km [3] [min^-1 × 10^3] | Km [3] [µM] | Vmax [3] [nmol/min/mg] | Vmax /Km [4] [min^-1 × 10^3] | Km [4] [µM] | Vmax [4] [nmol/min/mg]
O=c1[nH]c(=O)n([C@H]2C[C@H](O)[C@@H](CO)O2)cc1F [5-Fluoro-2'-deoxyuridine, 5-fluoro-2'-deoxyuridine] | 5.17 | 3.1 | 0.016 | 111.90 | 215 | 24.041 | 2.89 | 4.39 | 0.013 | 6.22 | 226 | 1.404
O=c1[nH]c(=O)n([C@@H]2O[C@H](CO)[C@@H](O)[C@H]2O)cc1F [5-Fluorouridine] | 0.50 | 25.1 | 0.013 | 8.62 | 286 | 2.470 | – | – | – | – | – | –
Cc1cn([C@H]2C[C@H](O)[C@@H](CO)O2)c(=O)[nH]c1=O [Thymidine, thymidine] | 4.00 | 6.41 | 0.025 | 76.15 | 256 | 19.471 | 2.40 | 6.45 | 0.015 | 6.34 | 168 | 1.068
O=c1ccn([C@@H]2O[C@H](CO)[C@@H](O)[C@H]2O)c(=O)[nH]1 [Uridine, uridine] | 0.55 | 55.8 | 0.031 | 172.00 | 99.1 | 1.703 | 7.00 | 40.3 | 0.027 | 3.79 | 114 | 0.431
